B1: 14-3-3 ζ protein, P63104 1-245 (natural protein)
chain: MDKNELVQKAKLAEQAERYDDMAACMKSVTEQGAELSNEERNLLSVAYKNVVGARRSSWRVVSSIEQKTEGAEKKQQMAREYREKIETELRDICNDVLSLLEKFLIPNASQAESKVFYLKMKGDYYRYLAEVAAGDDKKGIVDQSQQAYQEAFEISKKEMQPTHPIRLGLALNFSVFYYEILNSPEKACSLAKTAFDEAIAELDTLSEESYKDSTLIMQLLRDNLTLWTSDTQGDEAEAGEGGEN

How the values were obtained:
human 14-3-3 ζ = target: T1, human 14-3-3 ζ (Homo sapiens, UniProt P63104); assay: BLI direct binding response of ginsenosides to immobilised 14-3-3 ζ; conditions: compound concentration 271μM; Fig. 3A and B
T1 sequence (P63104 1-245): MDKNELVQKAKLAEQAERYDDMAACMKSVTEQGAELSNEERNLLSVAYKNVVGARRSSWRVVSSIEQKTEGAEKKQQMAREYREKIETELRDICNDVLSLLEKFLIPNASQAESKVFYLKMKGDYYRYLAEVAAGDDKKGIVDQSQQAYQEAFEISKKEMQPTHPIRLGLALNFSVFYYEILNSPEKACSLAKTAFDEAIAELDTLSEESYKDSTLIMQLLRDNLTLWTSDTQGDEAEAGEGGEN

[1] = target: T2, 14-3-3 ζ protein (human), P63104; assay: crystal structure; conditions: remark: other sources report otherwise
T2 chain: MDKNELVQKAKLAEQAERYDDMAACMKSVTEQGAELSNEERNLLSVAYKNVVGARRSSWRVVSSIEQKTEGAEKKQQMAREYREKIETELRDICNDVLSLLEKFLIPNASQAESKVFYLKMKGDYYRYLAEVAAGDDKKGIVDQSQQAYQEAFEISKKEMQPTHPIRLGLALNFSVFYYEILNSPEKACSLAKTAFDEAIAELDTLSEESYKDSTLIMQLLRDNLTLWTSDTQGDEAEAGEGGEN

Row | Molecule | direct binding response to 14-3-3 ζ (BLI) (human 14-3-3 ζ) | stoichiometry N [1]
1 | CC(C)=CCC[C@](C)(O[C@@H]1O[C@H](CO)[C@@H](O)[C@H](O)[C@H]1O)[C@H]1CC[C@]2(C)[C@@H]1[C@H](O)C[C@@H]1[C@@]3(C)CC[C@H](O)C(C)(C)[C@@H]3CC[C@]12C [CK, ginsenoside compound K] | significant affinity | –
2 | CC(C)=CCC[C@](C)(O[C@@H]1O[C@H](CO)[C@@H](O)[C@H](O)[C@H]1O)[C@H]1CC[C@]2(C)[C@@H]1[C@H](O)C[C@@H]1[C@@]3(C)CC[C@H](O)C(C)(C)[C@@H]3[C@@H](O)C[C@]12C [F1] | barely interacted | –
3 | CC(C)=CCC[C@](C)(O)[C@H]1CC[C@]2(C)[C@@H]1[C@H](O)C[C@@H]1[C@@]3(C)CC[C@H](O)C(C)(C)[C@@H]3[C@@H](O)C[C@]12C [PPT, 20(S)-protopanaxatriol] | significant affinity | –
4 | CC(C)=CCC[C@](C)(O[C@@H]1O[C@H](CO[C@@H]2O[C@H](CO)[C@@H](O)[C@H](O)[C@H]2O)[C@@H](O)[C@H](O)[C@H]1O)[C@H]1CC[C@]2(C)[C@@H]1[C@H](O)C[C@@H]1[C@@]3(C)CC[C@H](O[C@@H]4O[C@H](CO)[C@@H](O)[C@H](O)[C@H]4O[C@@H]4O[C@H](CO)[C@@H](O)[C@H](O)[C@H]4O)C(C)(C)[C@@H]3CC[C@]12C [Rb1] | barely interacted | –
5 | CC(C)=CCC[C@](C)(O[C@@H]1O[C@H](CO)[C@@H](O)[C@H](O)[C@H]1O)[C@H]1CC[C@]2(C)[C@@H]1[C@H](O)C[C@@H]1[C@@]3(C)CC[C@H](O)C(C)(C)[C@@H]3[C@@H](O[C@@H]3O[C@H](CO)[C@@H](O)[C@H](O)[C@H]3O)C[C@]12C [Rg1] | significant affinity | –
6 | CC(C)=CCC[C@](C)(O)[C@H]1CC[C@]2(C)[C@@H]1[C@H](O)C[C@@H]1[C@@]3(C)CC[C@H](O)C(C)(C)[C@@H]3[C@@H](O[C@@H]3O[C@H](CO)[C@@H](O)[C@H](O)[C@H]3O)C[C@]12C [Rh1] | barely interacted | –
7 | CC(C)=CCC[C@](C)(O)[C@H]1CC[C@]2(C)[C@@H]1[C@H](O)C[C@@H]1[C@@]3(C)CC[C@H](O[C@@H]4O[C@H](CO)[C@@H](O)[C@H](O)[C@H]4O)C(C)(C)[C@@H]3CC[C@]12C [Rh2] | significant affinity | –
8 | B1 | – | 2

Source: paper PMC8282492 (Journal of Ginseng Research, 2020)
